Inhibition data for 2 compounds are collected here from patent US7563787B2, “Substituted pyrazole compounds” (Miikana Therapeutics, Inc., priority 2005, dated 2009).

Holding throughout (format): biochemical
The target of assay [1] is T1, ABL1 (Homo sapiens, UniProt P00519).
T1 construct: purchased Invitrogen, Carlsbad, Calif
Kind of assay: Kinase Selectivity Assay. Particulars: read-out: Percent Inhibition at 1 μM. Here is the method:
(§1) Compounds were assayed for inhibitory activity against a panel of different kinase enzymes at a concentration of 1 μM. Where appropriate, full-length enzymes or catalytically active fragments, with N-terminal or C-terminal His- or GST-tags, were used (Invitrogen, Carlsbad, Calif.). Test compounds were initially diluted to 100× test concentration in 100% DMSO. This 100× concentration was then diluted to a 4× working concentration in Kinase Buffer (50 mM HEPES pH 7.5, 0.01% Brij-35, 10 mM MgCl2, 1 mM EGTA) and 2.5 μL was then added to a low volume NBS, 384-well plate (Corning, Corning, N.Y.). Five μL of a 2× peptide/kinase mixture (Invitrogen, Carlsbad, Calif.), as appropriate (listed in Table 3), was then added and the reaction was then initiated by addition of 2.5 μL of a 4× working concentration of ATP in Kinase Buffer.

Assay [2] addresses T2, ABL1 E255K (Homo sapiens, UniProt P00519, E255K).
T2 construct: purchased Invitrogen, Carlsbad, Calif
Kind of assay: Kinase Selectivity Assay. The note with it: read-out: Percent Inhibition at 1 μM. As to the method: as §1

The target in assay [3] is T3, ABL1 G250E (Homo sapiens, UniProt P00519, G250E).
T3 construct: purchased Invitrogen, Carlsbad, Calif
Kind of assay: Kinase Selectivity Assay. Particulars: read-out: Percent Inhibition at 1 μM. Here is the method: as §1

Assay [4] deals with T4, ABL1 T315I (Homo sapiens, UniProt P00519, T315I).
T4 construct: purchased Invitrogen, Carlsbad, Calif
Kind of assay: Kinase Selectivity Assay. Particulars: read-out: Percent Inhibition at 1 μM. Here is the method: as §1

The target of assay [5] is T5, ABL1 Y253F (Homo sapiens, UniProt P00519, Y253F).
T5 construct: purchased Invitrogen, Carlsbad, Calif
Kind of assay: Kinase Selectivity Assay. The note with it: read-out: Percent Inhibition at 1 μM. As to the method:
as §1

In assay [6] the target is T6, PTK2 (FAK) (Homo sapiens, UniProt Q05397).
T6 construct: full-length enzymes or catalytically active fragments; purchased Invitrogen
T6 sequence (Q05397 whole entry, the tested form may be a part): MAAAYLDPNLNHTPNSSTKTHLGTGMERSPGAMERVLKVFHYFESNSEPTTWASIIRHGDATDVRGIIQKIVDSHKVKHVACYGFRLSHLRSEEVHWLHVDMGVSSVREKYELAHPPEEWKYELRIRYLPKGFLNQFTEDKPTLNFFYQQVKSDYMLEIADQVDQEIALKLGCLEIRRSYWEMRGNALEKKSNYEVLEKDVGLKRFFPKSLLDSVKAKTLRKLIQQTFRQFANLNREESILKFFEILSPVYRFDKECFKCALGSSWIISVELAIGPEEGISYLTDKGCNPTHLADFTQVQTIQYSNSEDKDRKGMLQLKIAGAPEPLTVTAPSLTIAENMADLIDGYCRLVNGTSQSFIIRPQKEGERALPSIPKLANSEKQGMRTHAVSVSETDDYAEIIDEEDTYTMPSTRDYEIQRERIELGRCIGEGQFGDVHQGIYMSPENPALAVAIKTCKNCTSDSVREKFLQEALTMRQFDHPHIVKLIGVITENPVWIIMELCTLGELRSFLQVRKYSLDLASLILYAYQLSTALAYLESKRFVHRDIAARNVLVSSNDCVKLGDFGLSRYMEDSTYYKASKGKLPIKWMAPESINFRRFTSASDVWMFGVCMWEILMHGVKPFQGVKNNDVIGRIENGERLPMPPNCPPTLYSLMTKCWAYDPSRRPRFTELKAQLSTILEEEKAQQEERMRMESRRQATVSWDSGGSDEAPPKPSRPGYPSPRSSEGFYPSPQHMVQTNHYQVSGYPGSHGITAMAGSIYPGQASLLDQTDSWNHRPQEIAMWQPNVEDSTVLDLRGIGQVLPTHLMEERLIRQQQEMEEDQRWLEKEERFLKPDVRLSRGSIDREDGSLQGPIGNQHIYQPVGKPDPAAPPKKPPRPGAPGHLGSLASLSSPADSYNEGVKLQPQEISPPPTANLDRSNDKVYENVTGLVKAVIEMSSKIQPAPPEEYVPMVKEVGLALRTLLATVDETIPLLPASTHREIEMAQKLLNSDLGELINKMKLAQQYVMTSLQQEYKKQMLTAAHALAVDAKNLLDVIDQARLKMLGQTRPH
Nature of the assay: Kinase Selectivity Assay. Particulars: read-out: Percent Inhibition at 1 μM. As to the method: as §1

Assay [7] addresses T7, SYK (Homo sapiens, UniProt P43405).
T7 construct: purchased Invitrogen, Carlsbad, Calif
Nature of the assay: Kinase Selectivity Assay. Particulars: read-out: Percent Inhibition at 1 μM. As to the method:
as §1

The target of assay [8] is T8, recombinant human KDR, residues 790-end (Homo sapiens, UniProt P35968).
T8 construct: recombinant human KDR, residues 790-end; His6 (N); purchased Upstate USA Inc, Charlottesville, Va
T8 sequence (P35968 790-1356 limits assumed): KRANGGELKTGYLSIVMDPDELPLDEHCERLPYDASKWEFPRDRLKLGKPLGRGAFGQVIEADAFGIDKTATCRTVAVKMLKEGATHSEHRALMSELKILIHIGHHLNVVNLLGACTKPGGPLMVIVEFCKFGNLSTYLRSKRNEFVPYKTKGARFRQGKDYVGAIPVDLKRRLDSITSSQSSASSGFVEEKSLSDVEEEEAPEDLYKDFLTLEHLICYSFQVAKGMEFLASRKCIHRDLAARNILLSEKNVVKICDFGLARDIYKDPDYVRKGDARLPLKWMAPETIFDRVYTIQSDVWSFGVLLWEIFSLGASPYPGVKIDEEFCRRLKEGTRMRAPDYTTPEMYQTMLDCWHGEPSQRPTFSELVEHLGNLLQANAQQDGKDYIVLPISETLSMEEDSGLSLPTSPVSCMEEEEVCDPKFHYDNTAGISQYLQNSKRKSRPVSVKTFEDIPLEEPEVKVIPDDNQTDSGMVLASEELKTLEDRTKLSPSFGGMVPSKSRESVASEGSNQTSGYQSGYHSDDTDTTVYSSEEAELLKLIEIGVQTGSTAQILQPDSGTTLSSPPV
Kind of assay: KDR Kinase Inhibition Assay. Particulars: read-out: inhibition of KDR at a concentration of 1 μM.
Experimental: Compounds were assayed for KDR kinase inhibitory activity using N-terminal His6-tagged recombinant human KDR, residues 790-end (Upstate USA Inc, 706 Forest Street, Charlottesville, Va.). Serial dilutions of compound were assayed in a final reaction volume of 25 μL by incubating a solution of the above KDR kinase (5-10 mU), 8 mM MOPS (3-(N-morpholino) propanesulfonic acid) pH 7.0, 0.2 mM EDTA (ethylenediamine tetracetic acid), 0.33 mg/mL myelin basic protein (Upstate USA Inc, 706 Forest Street, Charlottesville, Virginia), and 10 mM magnesium acetate and [γ-^33P-ATP] (specific activity of about 500 cpm/pmol, concentration as required). The reaction was initiated by the addition of the magnesium acetate and [γ-^33P-ATP] mixture. After incubation for 40 minutes at room temperature, the reaction was stopped by the addition of 5 μL of a 3% phosphoric acid solution. A 10 μL aliquote of the reaction was then spotted onto a P30 filtermat (PerkinElmer, Wellesley, Mass.) and washed three times for five minutes in 75 mM phosphoric acid and once in methanol prior to drying and scintillation counting. Inhibition of KDR activity was determined by comparison to assays that contained no inhibitor.

In assay [9] the target is SRC (Homo sapiens, UniProt P12931). Nature of the assay: Src Kinase Inhibition Assay. Also on record: His (N); purchased Upstate USA Inc, Charlottesville, Va. Particulars: read-out: inhibition of Src at a concentration of 1 μM; 1 μM compound; 33P-ATP filter assay. As to the method:
Compounds were assayed for Src kinase inhibitory activity using N-terminal His-tagged human Src (Upstate USA Inc, 706 Forest Street, Charlottesville, Va.).

SRC, sequence (P12931 whole entry): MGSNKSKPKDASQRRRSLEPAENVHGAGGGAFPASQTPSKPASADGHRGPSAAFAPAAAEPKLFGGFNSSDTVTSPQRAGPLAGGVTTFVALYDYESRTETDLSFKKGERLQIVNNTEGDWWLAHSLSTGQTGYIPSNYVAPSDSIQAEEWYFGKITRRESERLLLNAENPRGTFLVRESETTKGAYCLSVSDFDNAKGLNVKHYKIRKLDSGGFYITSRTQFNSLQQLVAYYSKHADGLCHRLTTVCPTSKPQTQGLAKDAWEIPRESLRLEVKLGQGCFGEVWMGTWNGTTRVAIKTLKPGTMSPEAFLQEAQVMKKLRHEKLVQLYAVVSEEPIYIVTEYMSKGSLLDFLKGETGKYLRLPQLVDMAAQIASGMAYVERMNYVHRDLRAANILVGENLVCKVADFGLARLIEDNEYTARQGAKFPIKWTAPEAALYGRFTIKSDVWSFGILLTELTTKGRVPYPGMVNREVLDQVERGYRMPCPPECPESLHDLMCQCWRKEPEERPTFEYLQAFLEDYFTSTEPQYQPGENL

Consider `Cc1cc(Nc2nc(/C=C/c3ccccc3)nc(N3CCN(C)CC3)c2N)[nH]n1` [Example 10, 6-(4-methylpiperazin-1-yl)-N-(3-methyl-1H-pyrazol-5-yl)-2-[(E)-2-phenylvinyl]pyrimidin-4,5-diamine], for which the inhibition at 1 µM in assay [1] amounted to 54%; in assay [2], 53%; in assay [3], 60%; in assay [4], 79%; in assay [5] it was 57%; in assay [6], 81%. In assay [7], the inhibition at 1 µM turned out to be 88%.
With `Cc1cc(Nc2cc(N3CCN(C)CC3)nc(/C=C/c3ccccc3)n2)n[nH]1` [Example 31, 6-(4-methylpiperazin-1-yl)-N-(3-methyl-1H-pyrazol-5-yl)-2-[(E)-2-phenylvinyl]pyrimidin-4-amine], the inhibition at 1 µM in assay [8] is roughly 94%; in assay [9] it was roughly 95%.
